Here are results for two compounds from patent US20130281313A1, “PROGNOSTIC AND/OR PREDICTIVE BIOMARKERS AND BIOLOGICAL APPLICATIONS THEREOF” (INSTITUT GUSTAVE ROUSSY, priority 2010, published 2013).

Assay [1] deals with CDDP-GG DNA adducts. Briefly: Immunofluorescence microscopy for the detection of CDDP-GG DNA adducts. The format is cell-based, human. As to conditions: A549 cells, 25 μM CDDP alone or combined with PN. The method, then: Immunofluorescence staining and measurement of specific DNA platination products was performed essentially as previously described {Dzagnidze, 2007; Liedert, 2006}, with minor modifications. Briefly, cells were spotted onto ImmunoSelect adhesion slides (Squarix GmbH, Marl, Germany), fixed overnight in ice-cold methanol, and subjected to proteolytic digestion with 60 μg/mL pepsin (100 μL per spot, 10 min, 37° C., in a moist chamber) and 40 μg/mL proteinase K (100 μL per spot, 10 min, 37° C., in a moist chamber). Upon blockage of unspecific binding sites with 5% (w/v) non-fat powdered milk in PBS, slides were incubated with a rat primary antibody that specifically recognizes CDDP-GG DNA adducts (RC-18) (at 37° C. for 2 h or at 4° C. overnight). […] Images were acquired on an Axioplan fluorescence microscope (Carl Zeiss GmbH, Göttingen, Germany) coupled to a C4880 CCD camera (Hamamatsu Photonics, Herrsching, Germany). For the detection of CDDP-GG DNA adducts by immunofluorescence microscopy, fluorescence signals were measured by quantitative digital image analysis with the ACAS 6.0 Cytometry Analysis System (ACAS II, Asbach, Germany). The levels of adducts in each sample were calculated as arbitrary fluorescence units (AFUs), upon normalization of integrated antibody-derived fluorescence from 200 nuclei/sample to the corresponding DNA content. […]

The test system of assay [2] is murine Lewis lung carcinoma (LLC) cells in immunocompetent C57BL/6 mice. Briefly: Tumor graft model: LLC cells in C57BL/6 mice. The format is in vivo, mouse. The conditions noted are these: intraperitoneal CDDP with systemic injections of PN. The method, then:
C57BL/6 (H-2b) and Swiss Nude mice were obtained from Janvier (Le Genest St. Isle, France) and Charles River, respectively. Animals were maintained in pathogen-free conditions, and all experiments were carried out (upon approval by the local ethical committee) according to the Federation of European Laboratory Animal Science Association (FELASA) guidelines. Mice were used between 6 and 12 weeks of age. During the experiments, animals were subjected to artificial light cycle (12 h lights on-12 h lights off) and allowed food and drink ad libitum.
5×10^5 LLC and A549 cells were subcutaneously xenografted (in 100 μL sterile PBS) in 25-30 immunocompetent (C57BL/6) and immunodeficient (Swiss Nude) mice, respectively. When the surface of tumors reached 25-40 mm^2, n=4-6 mice were assigned to either of 4 different treatment groups: group 1=100 μL intraperitoneal PBS; group 2=5 mg/kg intraperitoneal CDDP in 100 μL PBS; group 3=240 mg/Kg intraperitoneal Orlistat® in 40 μL PBS; group 4=5 mg/kg intraperitoneal CDDP in 100 μL PBS+intraperitoneal Orlistat® in 40 μL PBS. Treatments were administered three times a week (day 1, 3 and 5; day 8=day 1). Tumor size was monitored on the day of treatment by means of a standard calliper and tumor volume was extrapolated as previously described {Streit, 1999}. […] Statistical significance was evaluated by two-way ANOVA.

Assay [3] has as its system A549 cells. As to the kind of experiment: Genome-wide siRNA screen: residual proliferation (WST-1) of siRNA-transfected cells upon CDDP. The format is cell-based, human. As to conditions: 50 μM CDDP for 24 hours. As for the experimental part: High-throughput operations were carried out by means of a Microlab STAR automated workstation (Hamilton, Reno, USA) placed under a class II safety cabinet. In all screening rounds, each siRNA was tested in triplicates that were distributed to three different plates. Prior to cell seeding, transfection complexes were individually prepared in a V-bottomed 96-well deep well plate. In brief, each siRNA (as retrieved from the Human Whole Genome siRNA Set Version 1.0) was dissolved in a total volume of 122.5 μL serum-free phenol-red free DMEM/F12 medium (final concentration=10 nM, conditions for 7 wells). Similarly, an appropriate amount of HiPerFect® transfection reagent (Qiagen) was diluted in serum-free phenol-red free DMEM/F12 medium (0.25 μL per well). […] After additional 24 h, the 3 plates that were not subjected to cell death induction were assessed for both plasma membrane breakdown and residual cell proliferation, while the 3 plates that were treated with cell death-inducing stimuli were monitored for residual proliferation only (see next section). […]
In the second round of screen (4 siRNAs×1,000 transcripts=4,000 siRNAs), the effects of individual siRNAs were analyzed and scored as described above. […]

Regarding `Cc1ncc(CO)c(CO)c1O` [PN, pyridoxine], the CDDP-DNA adducts result in assay [1] is recorded as “significantly increased CDDP-DNA adducts”. For the same compound, the “antitumor effects of CDDP-based chemotherapy (tumor growth)” value in assay [2] is reported as “augmented the antitumor effects of CDDP-based chemotherapy in vivo”.

Compound `N.N.[Cl][Pt][Cl]` [CDDP, cis-diammineplatinum(II) dichloride] yielded a cells killed in assay [3] of approximately 45%.
